Experimental data from patent US7880021B2, “Compounds and kits for the detection and the quantification of cell apoptosis” (Centre National de la Recherche Scientifique (CNRS), priority 2005, dated 2011).

Legend:
T lymphoblastoid cells = assay: Flow cytometry analysis with annexin V-FITC, PI and F2N12S; type: cell-based, human
Description: FIG. 6: Flow cytometry analysis of T lymphoblastoid cells treated by actinomycin D. Cells were stained by annexin V-FITC, PI and F2N12S. In (a), Annexin V-FITC and PI were selectively excited at 488 nm. Cells are sorted into living, dead and apoptotic cell populations. In (b), F2N12S is selectively excited at 407 nm. Living cells are discriminated from apoptotic and necrotic cells. In (c), the PI fluorescence intensities are plotted versus the T*/N* ratio of F2N12S. Living cells are in green, apoptotic cells are in cyan and dead cells are in orange. In (d), the populations sorted using the F2N12S/PI couple were colored according to their response with the annexin V/PI couple. The wavelengths of maximal transmission and bandwidths of used filters are indicated in brackets.
FIG. 7: Comparison of the intensiometric response of annexin V-FITC (a) with the ratiometric fluorescence response of F2N12S (b). Living, dead and apoptotic cells were identified as described in FIG. 6, by using either the annexin V-FITC/PI (a) or the F2N12S/PI (b) couple of dyes.
FIG. 8: Comparison of the response of annexin V-FITC and F2N12S on non-treated T lymphoblastoid cells stained by annexin V-FITC, PI and F2N12S. In (a), annexin V-FITC and PI were selectively excited at 488 nm. In (b), F2N12S is selectively excited at 407 nm. Cells are sorted into living and dead cell populations.
Human lymphoid CEM T cells were cultured in X-vivo 15 medium (Cambrex, France) at 37° C. in humidified 5% CO2 atmosphere. Cell viability was checked by trypan blue exclusion. Cells were seeded at 5×10^5 cells/ml in the presence or absence of actinomycin D (0.5 μg/ml) for 18 h. Cells were pelleted by centrifugation at 1500 rpm for 5 min and resuspended at 1×10^6 cells/ml in X-vivo 15 medium for experiments.
For the validation of F2N12S in cell cytometry, we used a FASCARIA™ (cell sorter) (BD Biosciences, CA, USA) equipped with an argon laser (488 nm) and a diode laser (407 nm) and emission filters DF30, DF42 and DF20 centered at 530 nm, 585 nm and 610 nm, respectively. The optical pathways corresponding to the argon laser and to the diode laser are independent. Data were analyzed using the FACSDIVA™ (cell sorter) Software (BD Biosciences). The granulation, size and fluorescence intensity were recorded at a rate of ˜1000 cells per second.
T lymphoblastoid cells were treated with actinomycin D and labeled simultaneously by FITC-labeled annexin V, propidium iodide (PI) and F2N12S. […] The emissions of FITC and PI were collected in the spectral regions of 515-545 nm and 600-620 nm, respectively. […] The emission light in this case was collected in two spectral regions: at 515-545 nm to monitor the emission of the N* band and 564-606 nm to collect the emission of the T* band (FIG. 6b). […] The second one is characterized by a high N*/T* intensity ratio (shown in red) and can be assigned to apoptotic and dead cells.
The probe of the invention F2N12S has been combined with PI and the fluorescence intensities of PI have been represented as a function of the T*/N* ratio of F2N12S (FIG. 6c). In this case, the populations of apoptotic and dead cells are clearly discriminated by using the differences in the PI intensities. […] This conclusion was further strengthened when the populations discriminated by the F2N12S/PI couple were colored according to their response with the annexin V-FITC/PI couple (FIG. 6d).

CEM T cells = assay: Emission spectra in living and apoptotic cell suspensions, and Ca2+ dependence; type: cell-based, human
Experimental: FIG. 3: Emission spectra of the probe F2N12S in living (solid line) and apoptotic (dash line) CEM cells. Excitation wavelength was 400 nm. Final probe concentration was 0.1 μM.
FIG. 4: Ca^2+ dependence of F2N12S emission spectra in apoptotic CEM cells. The excitation wavelength was 400 nm. The spectra were recorded at Ca^2+ concentrations of 0.2, 0.4, 0.8, 1.2 and 2 mM and normalized. Final probe concentration was 0.1 μM.
Human lymphoid CEM T cells were cultured in X-vivo 15 medium (Cambrex, France) at 37° C. in humidified 5% CO2 atmosphere. Cell viability was checked by trypan blue exclusion. Cells were seeded at 5×10^5 cells/ml in the presence or absence of actinomycin D (0.5 μg/ml) for 18 h. […]
The cells were washed twice by HBSS before each experiment to eliminate fetal bovine serum. […] For fluorescence measurements with the probe of the invention F2N12S (fluorometry, flow cytometry and confocal microscopy), cells were resuspended in HBSS with 0.1 μM F2N12S. […] The staining pattern of the cells was checked with a Confocal Imaging System MRC-1024 (BioRad) to ascertain that fluorescence originates from the plasma membrane.
Fluorescence spectra were recorded on a FLUOROMAX-3® (spectrofluorometer) (JobinYvon Horiba). The excitation wavelength for fluorescence emission spectra of F2N12S probes was 400 nm. […]

[1] = actinomycin D-treated cells, probe combined with PI

Substance: 1-dodecanaminium, N-[[2-[4-Diethylaminophenyl]-3-hydroxychromon-6-yl]-methyl]-N-methyl-N-(3-sulfopropyl)-, inner salt [F2N12S]
- percentage of apoptotic cells (T lymphoblastoid cells; [1]): 19.5%
- percentage of dead cells (T lymphoblastoid cells; [1]): 48%
- percentage of living cells (T lymphoblastoid cells; [1]): 32.5%
- percentage of dead cells (T lymphoblastoid cells; non-treated T lymphoblastoid cells): 5%
- relative intensity of the short-wavelength band, apoptotic versus living cells (CEM T cells; actinomycin D-induced apoptosis, cells sorted with FITC-annexin, excitation 400 nm, probe 0.1 μM): ~2 fold
- dependence of the response on Ca2+ concentration (CEM T cells; apoptotic cells, Ca2+ 0-2 mM): insensitive
